The text below walks through data of PubChem BioAssay (NCI).

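A five-concentration, 48-hour dose response in 96-well plates underlies each endpoint, interpolated linearly between surrounding concentrations. TGI marks complete inhibition of growth.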

Common to all, as to assay: NCI-60 cell line screen, 48 h
Assay [1] deals with MALME-3M melanoma.
Assay [2] relates to MDA-MB-435.
Assay [3] has as its system MOLT-4 leukemia.
Assay [4] relates to OVCAR-3 ovarian.
For assay [5], the system named is RXF 393 renal.
Assay [6] concerns HCT-116 colon.
Assay [7] concerns SW-620 colon.
In assay [8] the test system is HOP-62 NSCLC.
In assay [9] the test system is T-47D breast.
In assay [10] the test system is SK-MEL-2 melanoma.

On to `Cc1ccc2c(c1C)C(=O)/C(=C/c1cccc(C)c1C(=O)O)C2`, for which the TGI in [1], in assay [2], in assay [3], in [4], in assay [5] and in assay [6] was above 100 µM throughout. Further, the TGI in assay [7], in assay [8], in [9] and in [10] was above 100 µM in each case.

Consider `CCCCCCCCCCCCO[P+](=O)OCCCCCCCCCCCC`, for which the TGI in assay [1], in [2], in assay [3], in assay [4], in assay [5] and in assay [6] was above 100 µM throughout. In addition, the TGI in assay [7], in assay [8], in assay [9] and in assay [10] was above 100 µM throughout.

For the compound `CN1CCN([C@H]2C[C@H]3[C@@H]4CC=C5C[C@@H](O)CC[C@]5(C)[C@H]4CC[C@]3(C)[C@H]2O)CC1`, the TGI in [1] is above 58.1 µM; in assay [2], 31 µM; in assay [3], above 82.5 µM; in [4], above 57.8 µM; in assay [5], 51.9 µM; in assay [6], above 80.6 µM. For the same compound, the TGI in assay [7] was 49.7 µM; in [8] it was above 100 µM; in assay [9], above 77.8 µM; in assay [10], above 100 µM.

`CC/C(N)=N\NC(=O)OC(C)(C)C`: the TGI in assay [1], in [2], in assay [3], in assay [4], in [5] and in assay [6] was above 100 µM throughout. The TGI in assay [7], in [8], in [9] and in assay [10] was above 100 µM each time.

Take `Cc1ccc(NC(=O)CC(=O)n2nc(C)c(N=Nc3cccc(C)c3)c2C)cc1`: the TGI in assay [1], in [2], in assay [3], in assay [4], in assay [5] and in assay [6] was above 100 µM each time. Further, the TGI in assay [7], in assay [8], in [9] and in [10] was above 100 µM throughout.

As for `CCOC(=O)c1cc(Br)c(-c2cc(C)co2)[nH]1`, the TGI in [1], in [2], in [3], in assay [4], in assay [5] and in assay [6] was above 100 µM in each case. The TGI in assay [7], in assay [8], in assay [9] and in assay [10] was above 100 µM throughout.

`CC(C)=NOC(=O)Nc1cccc2c1OCO2`: the TGI in [1], in assay [2], in assay [3], in assay [4], in assay [5] and in assay [6] was above 100 µM in each case. Besides, the TGI in [7], in assay [8], in assay [9] and in [10] was above 100 µM each time.

On to `Nc1cc2c3c(cccc3c1)C(=O)N(c1ccc(OCCN3CCCC3)cc1)C2=O`, for which the TGI in [1] worked out at 35.9 µM; in assay [2], 42.4 µM; in assay [3], 55.8 µM; in [4] it was 29.7 µM; in [5] it was 32.2 µM; in assay [6], 40.9 µM. In addition, the TGI in assay [7] came out at 97 µM; in [8], 29.7 µM; in assay [9] it was 51.6 µM; in [10] it was 38 µM.

In the case of `CCCCCCCCCCCCOP(=O)(O)OP(=O)(O)OCC1OC(n2cc(C)c(=O)[nH]c2=O)CC1O` (stereo not given), the TGI in [1], in [2], in [3], in assay [4], in [5] and in assay [6] was above 100 µM throughout. Also, the TGI in assay [7], in [8], in assay [9] and in assay [10] was above 100 µM throughout.

With `O=S(=O)(O)c1ccc2c(N=Nc3ccc(Sc4ccc(N=Nc5c(O)ccc6cc(S(=O)(=O)O)ccc56)cc4)cc3)c(O)ccc2c1`, the TGI in [1], in [2], in assay [3], in assay [4], in assay [5] and in assay [6] was above 100 µM each time. The TGI in assay [7], in assay [8], in assay [9] and in assay [10] was above 100 µM throughout.

Take `Cc1cc(=O)oc2c(CNC(CC(C)C)C(=O)O)c(O)ccc12` (stereo not given): the TGI in [1], in [2], in [3], in [4], in [5] and in assay [6] was above 100 µM throughout. Besides, the TGI in assay [7], in assay [8], in assay [9] and in assay [10] was above 100 µM each time.

Take `Cc1ccc(S[C@@H](C)[C@@](O)(C(N)=O)c2ccccc2)cc1`: the TGI in assay [1] is 42.8 µM; in assay [2], above 100 µM; in assay [3], 33.3 µM; in assay [4], above 100 µM; in [5] it was above 100 µM; in [6], above 100 µM. The TGI in assay [7] is above 100 µM; in [8], 62.6 µM; in assay [9] it was above 100 µM; in [10], above 100 µM.

As to `C=C1CC2[C@H](C)C(=O)CCC2(C)C2=C1C1CCC(C(C)CCC(=C)C(C)C(=O)O)C1(C)CC2=O` (stereo not given in full), the TGI is above 100 µM in [1]; above 100 µM in assay [2]; 63.1 µM in assay [3]; above 100 µM in [4]; 86.4 µM in assay [5]; above 100 µM in assay [6]. For the same compound, the TGI in assay [7], in assay [8], in [9] and in assay [10] was above 100 µM each time.
